Reference: patent publication US20240327408A1, “COMPOUNDS CONTAINING TETRAHYDRONAPHTHYRIDINONE OR TETRAHYDROPYRIDOPYRIMIDINONE SKELETON, PREPARATION METHOD THEREFOR AND PHARMACEUTICAL USE THEREOF” (CHINA PHARMACEUTICAL UNIVERSITY, priority 2021, published 2024)

Experiments:
[1] = biological target: T1, hClpP (Homo sapiens, UniProt Q16740); test: activating ClpP hydrolysis of FITC-casein (fluorescence kinetic detection); assay type: biochemical; settings: hClpP 1 μM, FITC-Casein 4 μM, 37° C.
T1 construct: made in house
Procedure, shortened: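 hClpP at 1 μM final preincubated with compounds (assay-buffer dilutions 200 μM–2 nM, before mixing) 30 min at 37 °C, then 4 μM final FITC-casein added. Fluorescence read kinetically at 37 °C every 1 min for 15 min, duplicate wells.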

[2] = tested on: MV4; 11 cells; test: inhibiting the growth of MV4; 11 cells; assay type: cell-based; settings: Homo sapiens
[3] = tested on: xenograft solid tumor models such as colon cancer, breast cancer, and brain tumors; settings: Oncotarget 2016, 7, 74380-74392; cited from earlier work

T1 sequence (Q16740 57-277): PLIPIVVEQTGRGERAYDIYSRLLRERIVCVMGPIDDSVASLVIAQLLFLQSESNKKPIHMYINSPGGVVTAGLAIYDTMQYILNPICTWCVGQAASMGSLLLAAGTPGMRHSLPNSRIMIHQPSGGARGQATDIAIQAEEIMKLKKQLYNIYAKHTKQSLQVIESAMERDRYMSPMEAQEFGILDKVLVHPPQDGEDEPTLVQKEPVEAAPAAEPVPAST

Row | EC50 [1] | IC50 [2] | Compound | tumor regression in xenograft solid tumor models [3]
1 | 1000 to 10000 nM | 1000 to 10000 nM | N#Cc1cccc(CN2CCc3c(c(=O)n(Cc4ccc(Cl)cc4)c4cncn34)C2)c1 [Compound I-167, 7-(3-cyanobenzyl)-4-(4-chlorobenzyl)-6,7,8,9-tetrahydroimidazo[1,5-a]pyrido[3,4-e]pyrimidine-5(4H)-one] | 
2 | < 1000 nM | < 1000 nM | O=c1c2c(n3cccc3n1Cc1ccc(C(F)(F)F)cc1)CCN(Cc1ccccc1)C2 [Compound I-168, 3-benzyl-6-(4-trifluoromethylbenzyl)-1,2,3,4-tetrahydropyrido[3,4-e]pyrrolo[1,2-a]pyrimidine-5(6H)-one] | 
3 | < 1000 nM | < 1000 nM | O=c1c2c(n3cccc3n1Cc1ccc(Cl)cc1)CCN(Cc1cccc(Cl)c1)C2 [Compound I-169, 3-(3-chlorobenzyl)-6-(4-chlorobenzyl)-1,2,3,4-tetrahydropyrido[3,4-e]pyrrolo[1,2-a]pyrimidine-5(6H)-one] | 

Row | Compound | EC50 [1] | IC50 [2] | tumor regression in xenograft solid tumor models [3]
4 | Cc1ccccc1CN1C(=O)C2=C(CCN(Cc3ccccc3)C2)N2CCN=C12 [ONC201, reference compound] |  | 100 to 10000 nM | cause tumor regression
